For this experiment, the target named is T1, human GnRH receptor (Homo sapiens, UniProt P30968).
T1 construct: line established by Prof; Thomas Gudermann; host or cells: CHO cells
T1 sequence (P30968 1-328): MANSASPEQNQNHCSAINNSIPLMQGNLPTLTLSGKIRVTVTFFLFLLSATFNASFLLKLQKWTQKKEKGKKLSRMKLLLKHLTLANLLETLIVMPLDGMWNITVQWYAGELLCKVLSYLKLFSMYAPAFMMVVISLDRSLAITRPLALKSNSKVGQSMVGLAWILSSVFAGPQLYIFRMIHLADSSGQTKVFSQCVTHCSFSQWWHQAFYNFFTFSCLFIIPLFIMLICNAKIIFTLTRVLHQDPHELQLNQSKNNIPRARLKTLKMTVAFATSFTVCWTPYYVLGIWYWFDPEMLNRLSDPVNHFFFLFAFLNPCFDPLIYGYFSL
Description: IP-One HTRF assay (inhibition of GnRH-R activation by buserelin). In kind it is cell-based. The settings on record: IP-One HTRF assay with buserelin (at EC80) stimulation; CHO cells stably expressing human GnRH receptor; tested 20 µM to 1 nM; read-out: Potency IC50. The essentials:
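CHO cells stably expressing human GnRH-R, pre-incubated 20 min at 22°C with compound (10 concentrations, 20 µM to 1 nM, duplicates), then stimulated 1 h at 37°C with buserelin or LHRH at EC50 or EC80 in pH 7.4 buffer with 50 mM LiCl. IP1 read by HTRF 665/620 nm ratio; IC50 by 4-parameter fit.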

Molecules are shown by their SMILES. pIC50: −log10 of the molar value.

The results in this text go back to patent EP2881391A1, “Spiroindoline carbocycle derivatives and pharmaceutical compositions thereof” (Bayer Pharma Aktiengesellschaft, priority 2013, dated 2015).

What is called pIC50 is the negative decadic logarithm of the IC50, by convention in mol/L. As to `CC(C)=CCC1N(S(=O)(=O)c2ccc(F)cc2)c2ccc(C(=O)Nc3cccc(C)c3)cc2C12CCC(O)(C(F)(F)F)CC2` (centres unmarked) [Example 13, 1'-[(4-fluorophenyl)sulfonyl]-4-hydroxy-2'-(3-methylbut-2-en-1-yl)-N-(3-methylphenyl)-4-(trifluoromethyl)-1',2'-dihydrospiro[cyclohexane-1,3'-indole]-5'-carboxamide], the pIC50 was 5.49.
Under `O=C(NCc1ncc(C(F)(F)F)cc1Cl)c1ccc2c(c1)C1(CCC(O)CC1)C(C1CC1)N2S(=O)(=O)c1ccc(F)cc1` (centres unmarked) [Example 7, N-{[3-chloro-5-(trifluoromethyl)pyridin-2-yl]methyl}-2'-cyclopropyl-1'-[(4-fluorophenyl)sulfonyl]-4-hydroxy-1',2'-dihydrospiro[cyclohexane-1,3'-indole]-5'-carboxamide] stands 7.28.
